{
  "source": "paper PMC11239673",
  "about": "“Structural basis for the bi-specificity of USP25 and USP28 inhibitors” (EMBO Reports, 2024)",
  "assay_type_in_all_cases": "biochemical",
  "key": {"USP25Δtip E373A": {"biological_target": "T1, USP25Δtip E373A (Homo sapiens, UniProt Q9UHP3, DEL465-537/E373A/INS464GSGSGS)", "T1 construct": "6xHis or thioredoxin-6xHis (N, cleaved yes); made in house; host or cells: E. coli BL21star (DE3)", "T1 sequence (Q9UHP3 with tags, fused parts or gaps E373A/DEL465-477/P478G/DEL482-535/A536G/P537S limits assumed)": "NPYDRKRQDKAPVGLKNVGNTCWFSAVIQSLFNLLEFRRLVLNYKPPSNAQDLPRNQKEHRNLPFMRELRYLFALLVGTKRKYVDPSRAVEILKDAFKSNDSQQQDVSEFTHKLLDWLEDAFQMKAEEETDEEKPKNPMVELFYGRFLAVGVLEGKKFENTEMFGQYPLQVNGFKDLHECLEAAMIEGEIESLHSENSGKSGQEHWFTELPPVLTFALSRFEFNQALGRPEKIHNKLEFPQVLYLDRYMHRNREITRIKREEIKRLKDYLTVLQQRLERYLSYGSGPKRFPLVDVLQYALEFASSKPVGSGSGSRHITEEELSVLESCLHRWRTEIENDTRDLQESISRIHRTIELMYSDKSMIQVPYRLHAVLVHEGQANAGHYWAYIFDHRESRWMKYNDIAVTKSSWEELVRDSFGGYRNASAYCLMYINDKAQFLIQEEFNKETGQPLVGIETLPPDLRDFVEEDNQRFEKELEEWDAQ", "assay": "Ub-Rho110 dose–response assay, USP25Δtip E373A"}, "USP28Δtip D265S": {"biological_target": "T2, USP28Δtip D265S (Homo sapiens, UniProt Q96RU2, D265S/INS458SGSG)", "T2 sequence (Q96RU2 with tags, fused parts or gaps D265S/INS458SGSG)": "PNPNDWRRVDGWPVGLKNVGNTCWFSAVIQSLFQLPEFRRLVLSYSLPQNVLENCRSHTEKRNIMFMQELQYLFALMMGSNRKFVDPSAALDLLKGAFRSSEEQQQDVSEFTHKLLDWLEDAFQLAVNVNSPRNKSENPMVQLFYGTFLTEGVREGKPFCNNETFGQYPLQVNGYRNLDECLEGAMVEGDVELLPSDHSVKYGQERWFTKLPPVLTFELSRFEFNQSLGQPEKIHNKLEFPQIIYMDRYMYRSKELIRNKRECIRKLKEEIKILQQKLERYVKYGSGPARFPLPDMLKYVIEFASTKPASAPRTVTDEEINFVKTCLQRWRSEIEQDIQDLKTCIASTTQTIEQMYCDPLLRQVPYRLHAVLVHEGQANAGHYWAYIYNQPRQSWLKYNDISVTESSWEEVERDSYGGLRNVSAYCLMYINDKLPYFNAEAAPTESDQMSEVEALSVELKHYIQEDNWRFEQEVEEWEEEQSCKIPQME", "assay": "Ub-Rho110 dose–response assay, USP28Δtip D265S", "details": "for IC50: USP28 - D265S"}, "USP25Δtip D272S": {"biological_target": "T3, USP25Δtip D272S (Homo sapiens, UniProt Q9UHP3, D272S/DEL465-537/INS464GSGSGS)", "T3 construct": "6xHis or thioredoxin-6xHis (N, cleaved yes); made in house; host or cells: E. coli BL21star (DE3)", "T3 sequence (Q9UHP3 with tags, fused parts or gaps D272S/DEL465-477/P478G/DEL482-535/A536G/P537S limits assumed)": "T1 sequence (Q9UHP3 with tags, fused parts or gaps E373A/DEL465-477/P478G/DEL482-535/A536G/P537S limits assumed) with D116S, A217E", "assay": "Ub-Rho110 dose–response assay, USP25Δtip D272S"}, "[1]": {"details": "read-out: relative inhibition [%] - USP28 - D265S"}},
  "note": "Numbering of substitutions follows the chain as printed. Several values for one entry are separate records, joined by “and”; a condition that tells them apart may be missing. Identical values can stand only once. Like-named read-outs stand apart in the source and are kept apart here.",
  "data": [
    {"smiles": "Cc1ccc2c(N)c(C(=O)NC3CCc4cc(N5CC6CCC(C5)N6)ccc4C3)sc2n1", "note": "(centres unmarked) [FT206]", "values": [
      {"measurement": "t-test vs. USP25 WT control - E373A", "setting": "USP25Δtip E373A; p value, inhibitor IC50 on USP25 E373A compared with USP25 WT", "result": "3.888E-04"},
      {"measurement": "inhibition at 11.11 µM", "setting": "USP25Δtip E373A; read-out: relative inhibition [%] - USP25 - E373A, inhibitor 11.11 µM, single replicates", "result": 13.3, "unit": "%"},
      {"measurement": "inhibition at 33.33 µM", "setting": "USP25Δtip E373A; read-out: relative inhibition [%] - USP25 - E373A, inhibitor 33.33 µM, single replicates", "result": 33.6, "unit": "%"},
      {"measurement": "inhibition at 100 µM", "setting": "USP25Δtip E373A; read-out: relative inhibition [%] - USP25 - E373A, inhibitor 100.00 µM, single replicates", "result": 59.9, "unit": "%"},
      {"measurement": "t-test vs. USP28 WT control - D265S", "setting": "USP28Δtip D265S", "result": "4.502E-03"},
      {"measurement": "IC50", "setting": "USP28Δtip D265S; mean of replicates, read-out: IC50, mean and SD", "result": 310, "unit": "nM"},
      {"measurement": "IC50", "setting": "USP28Δtip D265S; single replicates, read-out: IC50 of each replicate curve (unlabelled line above mean and SD)", "result": "288 nM and 267 nM and 284 nM and 266 nM and 437 nM"},
      {"measurement": "inhibition at 11.11 µM", "setting": "USP28Δtip D265S; [1]", "result": 99.7, "unit": "%"},
      {"measurement": "inhibition at 33.33 µM", "setting": "USP28Δtip D265S; [1]", "result": 100, "unit": "%"},
      {"measurement": "inhibition at 100 µM", "setting": "USP28Δtip D265S; [1]", "result": 101, "unit": "%"},
      {"measurement": "inhibition at […]", "setting": "USP28Δtip D265S; [1]", "result": "97.8% and 94.4% and 33.5% and 30.9%"},
      {"measurement": "t-test vs. USP25 WT control - D272S", "setting": "USP25Δtip D272S; p value, inhibitor IC50 on USP25 D272S compared with USP25 WT", "result": "3.650E-02"},
      {"measurement": "inhibition at 33.33 µM", "setting": "USP25Δtip D272S; read-out: relative inhibition [%] - USP25 - D272S, inhibitor 33.33 µM, single replicates", "result": 87.3, "unit": "%"},
      {"measurement": "inhibition at 100 µM", "setting": "USP25Δtip D272S; read-out: relative inhibition [%] - USP25 - D272S, inhibitor 100.00 µM, single replicates", "result": 95.2, "unit": "%"}
    ]}
  ]
}
